Assay results: PubChem BioAssay AID651650 (Sanford-Burnham Center for Chemical Genomics, 2012)
Active and inactive are the calls of the source.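 The calls were made as follows: active = mean IC50 below 20 µM in each of the two panels, so potent in both; inactive = the rest.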

Target: Neuropilin-1 (Homo sapiens) (UniProt O14786)
Experiment: blockers of CendR peptide binding to NRP-1 – biochemical, FP and AlphaScreen panel, dose response (AID 651650)
Conditions: NRP-1 b1b2 / RPARPAR peptide binding, FP or AlphaScreen; AlphaScreen, mean of runs

Neuropilin-1 (Homo sapiens), sequence (O14786 whole entry, looked up): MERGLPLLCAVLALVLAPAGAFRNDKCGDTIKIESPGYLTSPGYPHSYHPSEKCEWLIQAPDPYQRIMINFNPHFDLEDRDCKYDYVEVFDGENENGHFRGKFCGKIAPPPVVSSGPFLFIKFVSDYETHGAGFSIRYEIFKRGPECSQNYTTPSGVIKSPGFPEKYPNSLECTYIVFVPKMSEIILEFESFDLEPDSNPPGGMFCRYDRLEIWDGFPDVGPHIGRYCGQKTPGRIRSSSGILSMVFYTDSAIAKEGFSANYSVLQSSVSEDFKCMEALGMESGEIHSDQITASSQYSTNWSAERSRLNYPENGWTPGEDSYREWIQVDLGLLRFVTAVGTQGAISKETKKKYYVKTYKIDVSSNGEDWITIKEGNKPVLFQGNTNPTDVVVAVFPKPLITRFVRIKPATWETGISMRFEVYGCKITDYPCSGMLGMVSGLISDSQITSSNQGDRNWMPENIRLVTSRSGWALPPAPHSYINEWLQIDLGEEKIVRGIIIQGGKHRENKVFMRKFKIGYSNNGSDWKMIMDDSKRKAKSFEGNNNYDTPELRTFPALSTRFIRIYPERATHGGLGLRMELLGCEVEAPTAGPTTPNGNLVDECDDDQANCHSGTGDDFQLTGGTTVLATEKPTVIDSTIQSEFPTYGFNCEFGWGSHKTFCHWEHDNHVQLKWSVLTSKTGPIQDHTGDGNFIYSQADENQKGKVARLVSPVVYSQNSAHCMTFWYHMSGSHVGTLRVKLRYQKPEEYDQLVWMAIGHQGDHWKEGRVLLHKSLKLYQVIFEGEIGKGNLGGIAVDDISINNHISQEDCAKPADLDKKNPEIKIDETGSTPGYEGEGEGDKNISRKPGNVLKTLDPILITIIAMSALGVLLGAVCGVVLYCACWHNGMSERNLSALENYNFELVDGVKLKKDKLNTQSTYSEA

Compound | IC50
C#CCCOC(=O)N1C2=NC(C(=O)OC)=C(C(=O)OC)[C@@H]3N(C)c4ccccc4[C@]23C[C@H]1CO | 9.53 µM
CC(=NN(Cc1ccccc1)c1ccccc1)c1ccccc1 | inactive
NC(=S)NNC(=S)Nc1ccccc1 | > 100 µM (inactive)
Cc1cc2c(=O)[nH]cnc2s1 | > 100 µM (inactive)
COc1ccccc1N1CCN(C2CCCN(C(=O)Cn3cccn3)C2)CC1 (stereo not given) | > 100 µM (inactive)
Cc1ccsc1C(=O)N1CCCC(CO)(Cc2ccccc2F)C1 (stereo not given) | > 100 µM (inactive)
COc1ccccc1COc1ccc2c(C)c(CC(=O)O)c(=O)oc2c1C | > 100 µM (inactive)
COc1cccc(-c2ccc3c(c2)N(Cc2ccccc2OC)C(=O)C(C)S3)c1 (stereo not given) | > 100 µM (inactive)

Further lines, results first:

IC50 | Compound
> 100 µM (inactive) | CCCCOC(=O)c1ccc(NS(=O)(=O)c2cc(-c3nnnn3CC)ccc2OC)cc1
> 100 µM (inactive) | C#CCOc1nc(C)cc(C)c1S(=O)(=O)c1ccccc1C
> 100 µM (inactive) | O=[N+]([O-])c1ccc(Cc2ccncc2)cc1
inactive | COc1ccc(Cn2c(C3CC3)nc3ccc(NC(=O)c4cccnc4)cc3c2=O)cc1
> 100 µM (inactive) | CCCS(=O)(=O)N1CCC(Cc2ccc(OC)cc2)(C(=O)OCC)CC1
> 100 µM (inactive) | Cc1cccc(-c2noc(CSc3ccccc3)n2)c1
> 100 µM (inactive) | Cc1cc2cc(CNC(=O)c3ccc(S(=O)(=O)N4CCOCC4)cc3)ccc2n1C
11.5 µM | O=c1c2ccccc2nc2n1C(CSc1ccc(F)cc1)CS2 (stereo not given)
> 100 µM (inactive) | O=C(Nc1cccc2c1CCCC2)c1cc(C2CCCCN2C(=O)CCCc2ccccc2)on1 (stereo not given)
12.3 µM | Cc1ccccc1Oc1ccc2c(c1)[C@@H]1C[C@H](N(C)C(=O)Nc3cc(Cl)cc(Cl)c3)[C@H]([C@H](C)O)C(=O)N1CC2

Same assay, conditions: NRP-1 b1b2 / RPARPAR peptide binding, FP or AlphaScreen; AlphaScreen, run 1; individual panel run IC50

Compound | IC50
C#CCCOC(=O)N1C2=NC(C(=O)OC)=C(C(=O)OC)[C@@H]3N(C)c4ccccc4[C@]23C[C@H]1CO | 9.53 µM
CC(=NN(Cc1ccccc1)c1ccccc1)c1ccccc1 | 41.3 µM
NC(=S)NNC(=S)Nc1ccccc1 | > 100 µM
Cc1cc2c(=O)[nH]cnc2s1 | > 100 µM
COc1ccccc1N1CCN(C2CCCN(C(=O)Cn3cccn3)C2)CC1 (stereo not given) | > 100 µM
Cc1ccsc1C(=O)N1CCCC(CO)(Cc2ccccc2F)C1 (stereo not given) | > 100 µM
COc1ccccc1COc1ccc2c(C)c(CC(=O)O)c(=O)oc2c1C | > 100 µM
COc1cccc(-c2ccc3c(c2)N(Cc2ccccc2OC)C(=O)C(C)S3)c1 (stereo not given) | > 100 µM

More lines, now with the values ahead:

IC50 | Compound
> 100 µM | CCCCOC(=O)c1ccc(NS(=O)(=O)c2cc(-c3nnnn3CC)ccc2OC)cc1
> 100 µM | C#CCOc1nc(C)cc(C)c1S(=O)(=O)c1ccccc1C
> 100 µM | O=[N+]([O-])c1ccc(Cc2ccncc2)cc1
31.7 µM | COc1ccc(Cn2c(C3CC3)nc3ccc(NC(=O)c4cccnc4)cc3c2=O)cc1
> 100 µM | CCCS(=O)(=O)N1CCC(Cc2ccc(OC)cc2)(C(=O)OCC)CC1
> 100 µM | Cc1cccc(-c2noc(CSc3ccccc3)n2)c1
> 100 µM | Cc1cc2cc(CNC(=O)c3ccc(S(=O)(=O)N4CCOCC4)cc3)ccc2n1C
11.5 µM | O=c1c2ccccc2nc2n1C(CSc1ccc(F)cc1)CS2 (stereo not given)
> 100 µM | O=C(Nc1cccc2c1CCCC2)c1cc(C2CCCCN2C(=O)CCCc2ccccc2)on1 (stereo not given)
12.3 µM | Cc1ccccc1Oc1ccc2c(c1)[C@@H]1C[C@H](N(C)C(=O)Nc3cc(Cl)cc(Cl)c3)[C@H]([C@H](C)O)C(=O)N1CC2

Same assay, conditions: NRP-1 b1b2 / RPARPAR peptide binding, FP or AlphaScreen; FP, mean of runs

Compound | IC50
C#CCCOC(=O)N1C2=NC(C(=O)OC)=C(C(=O)OC)[C@@H]3N(C)c4ccccc4[C@]23C[C@H]1CO | > 95 µM (inactive)
CC(=NN(Cc1ccccc1)c1ccccc1)c1ccccc1 | > 95 µM (inactive)
NC(=S)NNC(=S)Nc1ccccc1 | > 95 µM (inactive)
Cc1cc2c(=O)[nH]cnc2s1 | > 95 µM (inactive)
COc1ccccc1N1CCN(C2CCCN(C(=O)Cn3cccn3)C2)CC1 (stereo not given) | > 95 µM (inactive)
Cc1ccsc1C(=O)N1CCCC(CO)(Cc2ccccc2F)C1 (stereo not given) | > 95 µM (inactive)
COc1ccccc1COc1ccc2c(C)c(CC(=O)O)c(=O)oc2c1C | > 95 µM (inactive)
COc1cccc(-c2ccc3c(c2)N(Cc2ccccc2OC)C(=O)C(C)S3)c1 (stereo not given) | > 95 µM (inactive)

Results, then the compound that gave them:

IC50 | Compound
> 95 µM (inactive) | CCCCOC(=O)c1ccc(NS(=O)(=O)c2cc(-c3nnnn3CC)ccc2OC)cc1
> 95 µM (inactive) | C#CCOc1nc(C)cc(C)c1S(=O)(=O)c1ccccc1C
> 95 µM (inactive) | O=[N+]([O-])c1ccc(Cc2ccncc2)cc1
> 95 µM (inactive) | COc1ccc(Cn2c(C3CC3)nc3ccc(NC(=O)c4cccnc4)cc3c2=O)cc1
> 95 µM (inactive) | CCCS(=O)(=O)N1CCC(Cc2ccc(OC)cc2)(C(=O)OCC)CC1
> 95 µM (inactive) | Cc1cccc(-c2noc(CSc3ccccc3)n2)c1
> 95 µM (inactive) | Cc1cc2cc(CNC(=O)c3ccc(S(=O)(=O)N4CCOCC4)cc3)ccc2n1C
> 95 µM (inactive) | O=c1c2ccccc2nc2n1C(CSc1ccc(F)cc1)CS2 (stereo not given)
> 95 µM (inactive) | O=C(Nc1cccc2c1CCCC2)c1cc(C2CCCCN2C(=O)CCCc2ccccc2)on1 (stereo not given)
> 95 µM (inactive) | Cc1ccccc1Oc1ccc2c(c1)[C@@H]1C[C@H](N(C)C(=O)Nc3cc(Cl)cc(Cl)c3)[C@H]([C@H](C)O)C(=O)N1CC2

Same assay, conditions: NRP-1 b1b2 / RPARPAR peptide binding, FP or AlphaScreen; FP, run 1; individual panel run IC50

Compound | IC50
C#CCCOC(=O)N1C2=NC(C(=O)OC)=C(C(=O)OC)[C@@H]3N(C)c4ccccc4[C@]23C[C@H]1CO | > 95 µM
CC(=NN(Cc1ccccc1)c1ccccc1)c1ccccc1 | > 95 µM
NC(=S)NNC(=S)Nc1ccccc1 | > 95 µM
Cc1cc2c(=O)[nH]cnc2s1 | > 95 µM
COc1ccccc1N1CCN(C2CCCN(C(=O)Cn3cccn3)C2)CC1 (stereo not given) | > 95 µM
Cc1ccsc1C(=O)N1CCCC(CO)(Cc2ccccc2F)C1 (stereo not given) | > 95 µM
COc1ccccc1COc1ccc2c(C)c(CC(=O)O)c(=O)oc2c1C | > 95 µM
COc1cccc(-c2ccc3c(c2)N(Cc2ccccc2OC)C(=O)C(C)S3)c1 (stereo not given) | > 95 µM

Now from value to compound:

IC50 | Compound
> 95 µM | CCCCOC(=O)c1ccc(NS(=O)(=O)c2cc(-c3nnnn3CC)ccc2OC)cc1
> 95 µM | C#CCOc1nc(C)cc(C)c1S(=O)(=O)c1ccccc1C
> 95 µM | O=[N+]([O-])c1ccc(Cc2ccncc2)cc1
> 95 µM | COc1ccc(Cn2c(C3CC3)nc3ccc(NC(=O)c4cccnc4)cc3c2=O)cc1
> 95 µM | CCCS(=O)(=O)N1CCC(Cc2ccc(OC)cc2)(C(=O)OCC)CC1
> 95 µM | Cc1cccc(-c2noc(CSc3ccccc3)n2)c1
> 95 µM | Cc1cc2cc(CNC(=O)c3ccc(S(=O)(=O)N4CCOCC4)cc3)ccc2n1C
> 95 µM | O=c1c2ccccc2nc2n1C(CSc1ccc(F)cc1)CS2 (stereo not given)
> 95 µM | O=C(Nc1cccc2c1CCCC2)c1cc(C2CCCCN2C(=O)CCCc2ccccc2)on1 (stereo not given)
> 95 µM | Cc1ccccc1Oc1ccc2c(c1)[C@@H]1C[C@H](N(C)C(=O)Nc3cc(Cl)cc(Cl)c3)[C@H]([C@H](C)O)C(=O)N1CC2

Same assay, conditions: NRP-1 b1b2 / RPARPAR peptide binding, FP or AlphaScreen; FP, run 2; individual panel run IC50

Compound | IC50
C#CCCOC(=O)N1C2=NC(C(=O)OC)=C(C(=O)OC)[C@@H]3N(C)c4ccccc4[C@]23C[C@H]1CO | > 95 µM
CC(=NN(Cc1ccccc1)c1ccccc1)c1ccccc1 | > 95 µM
NC(=S)NNC(=S)Nc1ccccc1 | > 95 µM
Cc1cc2c(=O)[nH]cnc2s1 | > 95 µM
COc1ccccc1N1CCN(C2CCCN(C(=O)Cn3cccn3)C2)CC1 (stereo not given) | > 95 µM
Cc1ccsc1C(=O)N1CCCC(CO)(Cc2ccccc2F)C1 (stereo not given) | > 95 µM
COc1ccccc1COc1ccc2c(C)c(CC(=O)O)c(=O)oc2c1C | > 95 µM
COc1cccc(-c2ccc3c(c2)N(Cc2ccccc2OC)C(=O)C(C)S3)c1 (stereo not given) | > 95 µM

Continued, values first:

IC50 | Compound
> 95 µM | CCCCOC(=O)c1ccc(NS(=O)(=O)c2cc(-c3nnnn3CC)ccc2OC)cc1
> 95 µM | C#CCOc1nc(C)cc(C)c1S(=O)(=O)c1ccccc1C
> 95 µM | O=[N+]([O-])c1ccc(Cc2ccncc2)cc1
> 95 µM | COc1ccc(Cn2c(C3CC3)nc3ccc(NC(=O)c4cccnc4)cc3c2=O)cc1
> 95 µM | CCCS(=O)(=O)N1CCC(Cc2ccc(OC)cc2)(C(=O)OCC)CC1
> 95 µM | Cc1cccc(-c2noc(CSc3ccccc3)n2)c1
> 95 µM | Cc1cc2cc(CNC(=O)c3ccc(S(=O)(=O)N4CCOCC4)cc3)ccc2n1C
> 95 µM | O=c1c2ccccc2nc2n1C(CSc1ccc(F)cc1)CS2 (stereo not given)
> 95 µM | O=C(Nc1cccc2c1CCCC2)c1cc(C2CCCCN2C(=O)CCCc2ccccc2)on1 (stereo not given)
> 95 µM | Cc1ccccc1Oc1ccc2c(c1)[C@@H]1C[C@H](N(C)C(=O)Nc3cc(Cl)cc(Cl)c3)[C@H]([C@H](C)O)C(=O)N1CC2
